In ChEMBL document CHEMBL1201862, “PubChem BioAssay data set” (2004):
Activity calls are given as the source filed them.

Experiments:
[1] = molecular target: T1, Short transient receptor potential channel 4 (Mus musculus, UniProt Q9QUQ5); assay: calcium entry via TRPC4 opening agents – cell-based, HEK293 TRPC4/mu-opioid, Fluo-4 calcium, dose response (AID 434937); assay type: functional
T1 sequence (Q9QUQ5 whole entry): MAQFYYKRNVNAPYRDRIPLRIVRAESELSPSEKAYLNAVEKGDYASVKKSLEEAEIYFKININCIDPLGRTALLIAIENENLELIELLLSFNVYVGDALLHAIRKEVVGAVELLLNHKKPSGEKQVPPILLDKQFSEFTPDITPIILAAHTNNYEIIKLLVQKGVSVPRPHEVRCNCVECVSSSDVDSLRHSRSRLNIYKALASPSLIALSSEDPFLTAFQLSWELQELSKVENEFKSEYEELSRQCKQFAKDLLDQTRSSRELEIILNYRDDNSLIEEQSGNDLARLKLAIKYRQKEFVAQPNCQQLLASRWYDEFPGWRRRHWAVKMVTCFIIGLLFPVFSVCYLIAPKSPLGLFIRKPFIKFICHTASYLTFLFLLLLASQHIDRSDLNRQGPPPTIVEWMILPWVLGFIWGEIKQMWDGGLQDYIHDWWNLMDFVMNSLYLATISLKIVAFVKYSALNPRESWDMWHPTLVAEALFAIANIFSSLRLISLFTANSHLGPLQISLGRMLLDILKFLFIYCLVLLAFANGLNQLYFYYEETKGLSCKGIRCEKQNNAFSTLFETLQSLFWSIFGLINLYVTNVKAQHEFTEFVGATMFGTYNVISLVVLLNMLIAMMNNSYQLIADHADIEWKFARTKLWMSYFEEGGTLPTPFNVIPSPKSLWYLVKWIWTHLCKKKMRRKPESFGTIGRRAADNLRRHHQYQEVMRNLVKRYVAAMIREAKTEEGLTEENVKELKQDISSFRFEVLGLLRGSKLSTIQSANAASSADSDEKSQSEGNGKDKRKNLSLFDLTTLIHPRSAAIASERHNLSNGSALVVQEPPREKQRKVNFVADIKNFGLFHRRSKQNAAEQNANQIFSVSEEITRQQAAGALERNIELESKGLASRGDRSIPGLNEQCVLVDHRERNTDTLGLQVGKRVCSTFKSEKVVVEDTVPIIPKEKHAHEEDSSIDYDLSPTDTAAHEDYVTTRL

[2] = molecular target: Dual specificity tyrosine-phosphorylation-regulated kinase 1A (Rattus norvegicus, UniProt Q63470); assay type: biochemical, Homo sapiens
[3] = Vero E6 cell cytotoxicity, dose response, cytotoxicity control for non-replicating M. tuberculosis project, secondary assay (AID 492998); assay type: functional, VeroE6; conditions: Vero C1008
[4] = cells; assay type: functional
[5] = Luminescence Cell-Based Dose Response HTS to Identify Inhibitors of 5'UTR Stem-Loop Driven Prion Protein mRNA Translation in H4 Neuroglioblastoma Cells. [Related pubchem assays: 1827 (Project Summary), 1813 (Primary HTS)]; assay type: functional
[6] = alpha-synuclein stem-loop luciferase translation blockers – H4 neuroglioma cells, luminescence, confirmation (AID 1988); assay type: functional, cell-based
[7] = luciferase reporter signal suppression in cells – H4 neuroglioma cells, luminescence, dose response (AID 1990); assay type: functional, cell-based
[8] = system: HEK293; assay: EBV LMP1 TES2 canonical NF-kB signalling blockers – cell-based, HEK293, luciferase, cherry-pick, dose response (AID 588343); assay type: functional; conditions: Homo sapiens
[9] = molecular target: T2, Carboxy-terminal domain RNA polymerase II polypeptide A small phosphatase 1 (Homo sapiens, UniProt Q9GZU7); assay: CTDSP1 inhibitors, concentration-response, biochemical, absorbance readout, ultra-high-throughput screen actives (AID 540297); assay type: functional
T2 sequence (Q9GZU7 whole entry): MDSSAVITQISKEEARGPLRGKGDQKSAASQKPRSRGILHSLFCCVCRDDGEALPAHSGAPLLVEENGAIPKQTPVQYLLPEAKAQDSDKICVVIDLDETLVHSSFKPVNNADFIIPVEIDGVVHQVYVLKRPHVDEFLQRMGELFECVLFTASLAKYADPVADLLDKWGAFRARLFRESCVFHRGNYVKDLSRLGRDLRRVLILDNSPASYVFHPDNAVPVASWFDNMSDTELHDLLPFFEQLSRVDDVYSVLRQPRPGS

[10] = molecular target: Cytochrome P450 3A4 (Homo sapiens, UniProt P08684);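 note: CYP3A4 tested as one member of a cytochrome P450 panel screen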
[11] = molecular target: T3, High affinity choline transporter 1 (Homo sapiens, UniProt Q9GZV3); assay: human choline transporter blockers, potency – cell-based, 5-point CRC, membrane potential dye, dose response (AID 504840); assay type: functional
T3 sequence (Q9GZV3 whole entry): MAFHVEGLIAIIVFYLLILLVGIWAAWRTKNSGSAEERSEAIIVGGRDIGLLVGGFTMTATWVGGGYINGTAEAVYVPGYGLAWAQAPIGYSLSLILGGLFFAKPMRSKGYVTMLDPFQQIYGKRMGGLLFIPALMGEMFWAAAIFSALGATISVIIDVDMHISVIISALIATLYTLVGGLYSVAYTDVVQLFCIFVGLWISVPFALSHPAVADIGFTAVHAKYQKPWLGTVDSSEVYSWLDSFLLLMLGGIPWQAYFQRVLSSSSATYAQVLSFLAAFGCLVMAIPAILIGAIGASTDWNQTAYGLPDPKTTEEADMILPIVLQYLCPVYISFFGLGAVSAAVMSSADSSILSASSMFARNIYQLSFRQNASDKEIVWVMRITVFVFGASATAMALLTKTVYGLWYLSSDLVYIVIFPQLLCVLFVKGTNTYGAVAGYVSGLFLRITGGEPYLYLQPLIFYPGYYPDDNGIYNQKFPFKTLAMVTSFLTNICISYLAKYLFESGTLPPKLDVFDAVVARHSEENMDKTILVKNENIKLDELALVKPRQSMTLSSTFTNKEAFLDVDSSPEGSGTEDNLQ

[12] = molecular target: T4, Microphthalmia-associated transcription factor (Homo sapiens, UniProt O75030); assay: reducers of TRPM1 reporter luminescence, concentration series – cell-based, SK-MEL-5, cherry-picked, set 3, MITF inhibitor project, dose response (AID 493073); assay type: functional;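 note: SK-MEL-5 melanoma cells with luciferase driven by the MITF target TRPM1 promoter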
T4 sequence (O75030 whole entry): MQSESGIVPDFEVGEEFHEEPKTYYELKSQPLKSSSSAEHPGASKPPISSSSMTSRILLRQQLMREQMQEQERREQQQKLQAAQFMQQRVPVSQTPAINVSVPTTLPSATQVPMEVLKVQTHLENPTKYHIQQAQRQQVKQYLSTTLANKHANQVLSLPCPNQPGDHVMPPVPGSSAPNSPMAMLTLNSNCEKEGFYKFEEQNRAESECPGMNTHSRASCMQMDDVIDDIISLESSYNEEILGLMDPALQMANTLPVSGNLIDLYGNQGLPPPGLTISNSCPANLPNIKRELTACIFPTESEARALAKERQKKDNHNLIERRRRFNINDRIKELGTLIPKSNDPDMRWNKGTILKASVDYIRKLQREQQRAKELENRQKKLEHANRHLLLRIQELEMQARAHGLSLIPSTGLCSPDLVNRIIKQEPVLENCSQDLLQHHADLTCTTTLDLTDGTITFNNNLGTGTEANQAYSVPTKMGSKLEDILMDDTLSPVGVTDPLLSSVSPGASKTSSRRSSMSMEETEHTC

[13] = fluconazole-exposed Candida albicans growth modulators – fluorescence, retest, confirmation (AID 2467); assay type: functional, cell-based
[14] = NIH-3T3 fibroblast cytotoxicity, dose response, cytotoxicity control, cell-based, fluorescence, Alamar Blue, secondary assay (AID 2327); assay type: functional;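 note: NIH-3T3 mouse fibroblasts cultured with fluconazole at 8 µg/mL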
[15] = molecular target: Nonstructural protein 1 (Influenza A virus, UniProt Q194T2); assay type: functional, Influenza A virus (A/California/07/2009(H1N1))
[16] = molecular target: T5, Cytochrome P450 1A2 (Homo sapiens, UniProt P05177);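 note: PubChem cytochrome P450 panel assay, CYP1A2 panel member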
T5 sequence (P05177 whole entry): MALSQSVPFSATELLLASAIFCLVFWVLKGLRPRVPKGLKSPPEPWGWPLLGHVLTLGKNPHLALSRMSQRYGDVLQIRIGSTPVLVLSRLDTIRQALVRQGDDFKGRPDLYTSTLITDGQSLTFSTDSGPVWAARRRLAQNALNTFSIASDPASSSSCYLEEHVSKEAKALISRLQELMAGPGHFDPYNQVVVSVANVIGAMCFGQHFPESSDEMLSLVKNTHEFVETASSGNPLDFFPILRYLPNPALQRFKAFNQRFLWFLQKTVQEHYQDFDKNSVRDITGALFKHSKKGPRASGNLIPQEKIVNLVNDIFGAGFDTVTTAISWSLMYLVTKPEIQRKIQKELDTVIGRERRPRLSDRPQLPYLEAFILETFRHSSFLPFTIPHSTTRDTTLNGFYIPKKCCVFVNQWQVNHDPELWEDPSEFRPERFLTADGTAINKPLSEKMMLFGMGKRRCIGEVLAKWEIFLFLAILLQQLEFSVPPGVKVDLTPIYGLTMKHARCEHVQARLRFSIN

[17] = molecular target: T6, Heat shock factor protein 1 (Mus musculus, UniProt P38532); assay: decrease of HSF1-responsive luciferase luminescence – cell-based, NIH3T3, dose retest, confirmation (AID 2382); assay type: functional;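 note: NIH3T3 fibroblasts with HSF1-driven luciferase reporter stressed by proteasome inhibitor MG132; luminescence from HSF1-driven luciferase expression after 8 hours of MG132 stress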
T6 sequence (P38532 whole entry): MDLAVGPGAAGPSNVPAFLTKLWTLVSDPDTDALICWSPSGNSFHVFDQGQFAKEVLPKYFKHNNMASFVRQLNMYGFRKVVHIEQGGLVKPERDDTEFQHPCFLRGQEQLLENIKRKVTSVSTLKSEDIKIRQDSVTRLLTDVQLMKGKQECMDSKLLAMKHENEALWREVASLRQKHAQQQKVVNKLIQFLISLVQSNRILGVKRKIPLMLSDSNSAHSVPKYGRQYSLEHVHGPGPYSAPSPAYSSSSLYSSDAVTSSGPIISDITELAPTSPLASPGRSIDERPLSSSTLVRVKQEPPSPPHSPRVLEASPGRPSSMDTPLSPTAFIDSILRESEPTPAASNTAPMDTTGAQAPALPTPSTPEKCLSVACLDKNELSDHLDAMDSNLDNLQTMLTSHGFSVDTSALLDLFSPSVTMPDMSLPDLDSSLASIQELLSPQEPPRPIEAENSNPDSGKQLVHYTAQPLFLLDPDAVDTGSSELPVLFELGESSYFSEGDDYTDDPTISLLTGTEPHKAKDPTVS

[18] = molecular target: T1, Short transient receptor potential channel 4; assay: block of DAMGO-driven TRPC4 calcium entry – cell-based, HEK293 TRPC4/mu-opioid, Fluo-4 calcium, dose response (AID 434942); assay type: functional;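 note: potency of inhibitors blocking the TRPC4 calcium response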
[19] = A cytotoxicity screen of small molecule inhibitors of the PhoP region in Salmonella typhi identified in the primary screen. [Related pubchem assays: 1850, 1864, 1985 ]; assay type: functional

Cytochrome P450 3A4, sequence (P08684 whole entry): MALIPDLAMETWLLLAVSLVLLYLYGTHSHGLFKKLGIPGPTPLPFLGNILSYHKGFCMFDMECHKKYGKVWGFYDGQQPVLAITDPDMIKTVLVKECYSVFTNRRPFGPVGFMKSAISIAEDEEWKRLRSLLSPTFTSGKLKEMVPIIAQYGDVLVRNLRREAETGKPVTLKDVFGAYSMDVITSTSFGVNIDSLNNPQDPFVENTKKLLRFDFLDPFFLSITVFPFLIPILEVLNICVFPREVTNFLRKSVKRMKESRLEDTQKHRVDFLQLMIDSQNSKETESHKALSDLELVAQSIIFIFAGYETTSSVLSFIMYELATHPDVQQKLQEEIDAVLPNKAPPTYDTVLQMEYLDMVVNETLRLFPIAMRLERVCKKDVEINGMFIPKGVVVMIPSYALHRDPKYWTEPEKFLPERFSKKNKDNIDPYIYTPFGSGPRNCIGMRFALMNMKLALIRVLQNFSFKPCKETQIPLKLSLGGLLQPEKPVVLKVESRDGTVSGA
Nonstructural protein 1, sequence (Q194T2 whole entry): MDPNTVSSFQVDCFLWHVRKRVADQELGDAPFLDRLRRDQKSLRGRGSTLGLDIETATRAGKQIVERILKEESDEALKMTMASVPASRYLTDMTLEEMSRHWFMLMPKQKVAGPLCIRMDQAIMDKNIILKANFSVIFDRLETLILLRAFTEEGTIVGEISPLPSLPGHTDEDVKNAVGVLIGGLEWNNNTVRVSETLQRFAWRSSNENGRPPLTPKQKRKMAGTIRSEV

COc1cccc(CN2CCNC(=O)C2CC(=O)N(C)CCc2ccccn2)c1OC (stereo not given)
EC50 [1]: 6.68 µM (active)

COc1ccc(CCN(C)C(=O)C2CCCN(C3CCN(Cc4ccccc4)CC3)C2)cc1OC (stereo not given)
EC50 [1]: 1.19 µM (active)

O=C(O)/C=C/c1cccc(NC(=O)Nc2ccc([N+](=O)[O-])cc2)c1
AC50 [2]: 5.42 µM (active)

O=C(c1ccccc1)c1nc[nH]c1C(=O)Nc1ccccc1
CC50 [3]: > 20 µM (active)
IC50 [4]: 12.5 µM (active)

O=C(N/N=C1\CCCc2c1[nH]c1ccc(Cl)cc21)c1ccncc1
CC50 [3]: 9.43 µM (active)
EC50 [5]: 25.8 µM (active)
EC50 [6]: 10.3 µM (active)
EC50 [7]: 11.1 µM (active)
IC50 [4]: 0.6 µM (active)

COc1ccc(S(=O)(=O)NCCc2csc(-c3cccnc3)n2)cc1
AC50 [8]: 144 µM (active)

N#Cc1ccccc1S(=O)(=O)N1CCN(C(=O)C2COc3ccccc3O2)CC1 (stereo not given)
IC50 [9]: 3.54 µM (active)

CC(C)OC(=O)C(C)(C)Oc1ccc(C(=O)c2ccc(Cl)cc2)cc1 [FENOFIBRATE]
AC50 [10]: inconclusive

CC(/C=N/NC(=O)c1cc(-c2ccncc2)nc2ccccc12)=C\c1ccco1
IC50 [11]: 9.98 µM (active)
AC50 [12]: 2.4 µM (active)

CSc1nc2cc(S(=O)(=O)N3CCCCC3)ccc2s1
AC50 [10]: inconclusive

Nc1ncnc(Sc2ncccn2)c1[N+](=O)[O-]
EC50 [13]: 1 µM (active)
EC50 [14]: 7.47 µM (inconclusive)
AC50 [12]: 11.7 µM (active)

CCOC(=O)C1=C(C)N=C2c3ccccc3C(=O)C2C1c1ccc(C)cc1 (stereo not given)
AC50 [10]: inconclusive
IC50 [15]: > 100 µM (active)

Cc1ccc(C(=O)OCC(=O)c2ccc(CC(=O)N3CCOCC3)s2)c(C)c1
IC50 [9]: 4.73 µM (active)

O=C(N/N=C/c1ccccc1O)c1cc[n+]([O-])cc1
IC50 [15]: 4.49 µM (active)

CCc1ccccc1NC(=O)COc1ccc2oc(-c3ccc(OC)cc3)cc(=O)c2c1
IC50 [9]: 8.65 µM (active)

O=C(c1cc(C(F)(F)F)cc(C(F)(F)F)c1)N1CCC2(CC1)CCN(c1ccncc1)CC2
AC50 [16]: 25.1 µM (inconclusive)
AC50 [10]: inconclusive

O=C(CSc1nccc(O)n1)N1N=C2/C(=C/c3ccco3)CCCC2C1c1ccco1 (stereo not given)
IC50 [9]: 13 µM (active)

CC(C)(C)OC(=O)N1Cc2ccccc2C[C@H]1C(=O)NCC(=O)Nc1ccc2c(c1)OCCO2
EC50 [17]: 0.755 µM (active)
AC50 [8]: 1.4 µM (active)

C(=N\Nc1[nH]cnc2ncnc1-2)/c1cccs1
AC50 [2]: 5.83 µM (active)

CC(=O)OCC(=O)[C@@]1(OC(C)=O)[C@H](C)C[C@H]2[C@@H]3C[C@H](F)C4=CC(=O)C=C[C@@]4(C)[C@]3(F)[C@H](O)C[C@@]21C
AC50 [16]: 12.6 µM (inconclusive)
AC50 [10]: inconclusive

CCc1nccc2c1[nH]c1ccccc12
EC50 [18]: 2.99 µM (active)
EC50 [19]: > 50 µM (active)
AC50 [2]: 5.67 µM (active)
